Measured values reported in PubChem BioAssay (NCI).
Several values for one entry are separate records, joined by “and”; a condition that tells them apart may be missing. Equal values may be shown once.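 Protocol summary: plate cells (96-well), add compound at 5 concentrations, incubate 48 h, interpolate endpoints linearly. GI50 is the concentration that inhibits growth by half. TGI marks complete inhibition of growth.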

Experiments:
Assay in all cases: growth of human tumour cells (NCI), 48 h
[1] = tested on: OVCAR-8 ovarian
[2] = tested on: OVCAR-5 ovarian
[3] = tested on: NCI-H460 lung
[4] = tested on: SK-MEL-2 melanoma
[5] = tested on: SNB-19 CNS
[6] = tested on: IGROV1 ovarian
[7] = tested on: SF-295 CNS
[8] = tested on: NCI-H23 lung
[9] = tested on: OVCAR-4 ovarian
[10] = tested on: HT29 colon

SMILES	GI50 [1]	TGI [1]	GI50 [2]	TGI [2]	GI50 [3]	TGI [3]	GI50 [4]	TGI [4]	GI50 [5]	TGI [5]	GI50 [6]	TGI [6]	GI50 [7]	TGI [7]	GI50 [8]	TGI [8]	GI50 [9]	TGI [9]	GI50 [10]	TGI [10]
O=C1NC(=O)[C@@H](c2cn3c4c(cccc24)CCC3)[C@@H]1c1c[nH]c2ccccc12	0.492 µM and 0.561 µM	> 10 µM and 14.3 µM	0.652 µM and 1.1 µM	> 10 µM and 22.2 µM	365 nM and 372 nM	> 10 µM and 8.55 µM	370 nM and 570 nM	> 10 µM and 20.8 µM	466 nM and 601 nM	> 10 µM and 22.6 µM	0.592 µM and 0.833 µM	> 10 µM and 23.2 µM	0.33 µM and 0.26 µM	> 10 µM and 5.08 µM	0.545 µM and 0.53 µM	> 10 µM and 16.8 µM	1.58 µM and 1.12 µM	> 10 µM and 20.2 µM	0.312 µM and 0.321 µM	> 4.4 µM and 1.57 µM
Cc1ccc(C2=[N+]([O-])c3ccccc3C2=O)cc1		36 µM		> 89.9 µM		> 100 µM		97.7 µM		> 77.2 µM		43 µM		> 72.5 µM		> 31.6 µM				> 65 µM
CCOC(=O)Oc1c(OC)cc(C(=O)c2ccc(OC)c(OC(=O)CCl)c2OC)cc1OC	2.65 µM	> 100 µM	5.88 µM	> 100 µM	2090 nM	44.9 µM	668 nM	60.2 µM	750 nM	> 100 µM	3.36 µM	> 100 µM	0.886 µM	33.7 µM	3.86 µM	> 100 µM	6.34 µM	> 100 µM	3.15 µM	18.8 µM
O=C1CCCSCCCC(=O)CCCSCCC1		> 100 µM		> 100 µM		> 100 µM				> 100 µM		> 100 µM		> 100 µM		> 100 µM		> 100 µM		> 100 µM
NCCCn1c2c(c3ccccc3c1=O)C(=O)c1cc3c(cc1-2)OCO3	0.173 µM		1.54 µM	4.08 µM	54.7 nM	12.6 µM	3470 nM	12.8 µM	159 nM	1.62 µM	0.374 µM	9.2 µM	0.297 µM	1.74 µM	0.324 µM	1.38 µM			0.17 µM	1.35 µM
O=C(Nc1ccccc1)O/N=C1/CCCC/C1=C\c1ccccc1		42.8 µM		63.9 µM		28.3 µM		29.2 µM				17.7 µM		29.9 µM		48.8 µM		30.3 µM		95.1 µM
CCOC(=O)c1[nH]c2cccc3c2c1CC(Br)C3=O (configuration not stated)		41.5 µM		34.5 µM		47.8 µM				30.7 µM		20.4 µM		32.6 µM		35.9 µM				47.7 µM
CS(=O)(=O)c1ccc(Oc2nccc(-c3c(-c4ccc(F)cc4)ncn3C3CCNCC3)n2)cc1	> 25 µM	> 25 µM	> 25 µM	> 25 µM	> 25000 nM	> 25 µM	> 25000 nM	> 25 µM	> 25000 nM	> 25 µM	> 25 µM	> 25 µM	> 25 µM	> 25 µM			> 25 µM	> 25 µM	> 22.2 µM	> 25 µM
O=C1C(c2ccc(Cl)cc2)=[N+]([O-])c2ccccc21		25 µM		48.7 µM		37.6 µM		77.3 µM		53.8 µM		33.9 µM		42.2 µM		31.2 µM				43.6 µM
COc1c2c(c(OC)c3c(=O)cc(C/C(=N/NC(=O)C[n+]4ccccc4)C(=O)Nc4cc(C)ccc4C)oc13)OCO2		> 100 µM		> 100 µM		> 100 µM		> 100 µM		> 100 µM		> 100 µM				> 100 µM		> 100 µM		> 100 µM
COc1cc(-c2cc(C(=O)Nc3nc4ccccc4s3)nc3cc(-c4ccccc4)nn23)cc(OC)c1OC	5.37 µM	> 100 µM	> 100 µM	> 100 µM	29100 nM	> 100 µM	11200 nM	27.7 µM	16700 nM	69.5 µM	56.3 µM	> 100 µM	10.6 µM	32.7 µM	11.5 µM	> 100 µM	> 100 µM	> 100 µM		
O=C(Nc1cccc(C2=NCCN2)c1)c1ccc(OCCCOc2ccc(C(=O)Nc3cccc(C4=NCCN4)c3)cc2)cc1	4.03 µM	> 100 µM	3.51 µM	20.4 µM					2690 nM	> 100 µM			3.29 µM	> 100 µM						
O=C(Oc1cccc(Nc2ncnc3ccccc23)c1)c1ccccc1Cl	20.2 µM	59.1 µM	32.3 µM	> 100 µM	20300 nM	52.7 µM			52700 nM	> 100 µM	14.9 µM	> 100 µM	20 µM	47.5 µM	13 µM	31.8 µM	48.9 µM	> 100 µM	27.4 µM	> 100 µM
Cc1cc(S(=O)(=O)Nc2nnc(-c3ccco3)c(-c3ccco3)n2)c(SCc2ccccc2)cc1Cl	26.6 µM	71.1 µM	25.6 µM	49.8 µM	31600 nM	83.5 µM			21700 nM	43.8 µM	32.4 µM	> 100 µM	29.2 µM	83.9 µM	22.8 µM	46.9 µM	22 µM	41.6 µM	23.1 µM	47.1 µM
COC(=O)C/C(C)=C/[C@@H](O)[C@H]1O[C@@H]2CC/C(Cl)=C/C/C=C(/C)[C@H](OC(C)=O)CC(=O)O[C@@H]1C2	4.73 µM	> 25 µM	8.17 µM	> 25 µM	367 nM	13.8 µM	581 nM	9.62 µM	2280 nM	12.7 µM	1.68 µM	15.7 µM			1.14 µM	7.74 µM			1.26 µM	> 25 µM
COc1cccc2c(Nc3ccc(C(=O)NCCNCCO)cc3)cc(-c3ccccc3)nc12	42.2 µM	> 100 µM	76.7 µM	> 100 µM			19500 nM	40.8 µM			20.4 µM	48.7 µM	40.9 µM	> 100 µM	63.3 µM	> 100 µM	13.5 µM	43.7 µM	36 µM	> 100 µM
